Consider one compound from patent US20230210825A1, “METHODS AND COMPOSITIONS FOR TREATING SUBJECTS WITH METABOLIC DISORDERS AND CORONAVIRUS INFECTIONS” (CIRIUS THERAPEUTICS, INC., priority 2020, published 2023).

In this test the test system is influenza virus A/PR/8/34 (H1N1) infected mice. The test is described as follows: Influenza virus infection of C57BL/6 mice. Conditions: 30 mg/kg for 8 days. The test is classed as in vivo. On the procedure: As shown in the top panel of FIG. 13A, C57BL/6 mice were infected with the influenza virus A/PR/8/34 (H1N1; ˜200 pfu/mouse) and then dosed for 8 days with vehicle or 30 mg/kg MSDC-0602K. As shown in the bottom panel of FIG. 13A, body weight was measured daily as indication of the health of the mice and at day 14 the mice were sacrificed for examination of their blood and lung tissue. The mice were sacrificed on day 14. […] The MCP-1 production levels are decreased in mice treated with MSDC-0602K compared with mice with vehicle treatment. Similarly, the inflammatory monocyte numbers in the lungs are reduced in mice treated with MSDC-0602K compared with mice with vehicle treatment. FIG. 13 C is a representative histology with a calculation of the percent disrupted area. […] The levels of protein-B (sftbp) and ABCA3 protein (abca3) were increased in mice treated with MSDC-0602K compared with mice with vehicle treatment. On the other hand, the total protein levels in bronchoalveolar lavage were decreased in mice treated with MSDC-0602K compared with mice with vehicle treatment.

The mark [1] stands for this setting: sacrificed day 14, vs vehicle (FIG. 13B).

Molecules are shown by their SMILES.

`COc1cccc(C(=O)COc2ccc(CC3SC(=O)NC3=O)cc2)c1` (stereo not drawn) [MSDC-0602K]: where the note is “sacrificed day 14, vs vehicle”, the “expression of ABCA3 protein (abca3) in the lungs” value is given as “increased” and the “expression of surfactant protein-B (sftbp) in the lungs” value is recorded as “increased”. Under setting [1], the “MCP-1 (CCL2) production in the lungs” value was “decreased” and the “inflammatory monocyte numbers in the lungs” value was “reduced”. Besides, under “sacrificed day 14, vs vehicle (FIG. 13C)”, the “disrupted area in lung (histology)” value is on record as “significantly reduced”. For the setting “sacrificed day 14, vs vehicle (FIG. 13E)”, the “total protein levels in bronchoalveolar lavage (lung barrier leakage)” value was “decreased”.
